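Dose response: 5 concentrations. Exposure: 48 h. Format: 96-well plates. Endpoint: linear interpolation; highest concentration if not reached. The concentration for 50% growth inhibition is given as GI50. At the TGI there is no net growth.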 Where a SMILES comes first, the peptide text is derived from it. [ ]: non-standard residue; d: D form. The star is where a group is joined. NMeF = CN[CH](Cc1ccccc1)C(=O)O; NMeV = CN[CH](C(=O)O)C(C)C; Boc = CC(C)(C)OC(=O)*

Among the test systems are HT29 colon; MOLT-4 leukemia; NCI-H522 lung; SF-268 CNS; SK-MEL-2 melanoma; SNB-75 CNS; SR leukemia; UACC-257 melanoma; HOP-92 NSCLC; OVCAR-5 ovarian.
Common to all, as to assay: growth of human tumour cells (NCI), 48 h

As to `COc1cc(C(C)O)c[n+](CCc2c[nH]c3ccccc23)c1` (stereo unspecified), the TGI with HT29 colon, with MOLT-4 leukemia, in the assay on NCI-H522 lung, in the assay with SF-268 CNS, in the assay on SK-MEL-2 melanoma and in the assay with SNB-75 CNS was more than 100 µM throughout. For the same compound, the TGI in the assay on SR leukemia and in the assay with UACC-257 melanoma was more than 100 µM throughout.

Consider `CC(C)(C)c1ccc2c(c1)S(=O)(=O)Nc1ccccc1NS(=O)(=O)c1cc(C(C)(C)C)ccc1OCCOCCOCCO2`, for which the TGI in the assay with HOP-92 NSCLC, in the assay with HT29 colon, with MOLT-4 leukemia, with OVCAR-5 ovarian, in the assay with SF-268 CNS and in the assay on SK-MEL-2 melanoma was more than 100 µM each time. In addition, the TGI in the assay with SNB-75 CNS and with UACC-257 melanoma was more than 100 µM throughout.

Regarding `CN1c2ccc(Cl)cc2C(=O)NC1c1ccc([N+](=O)[O-])s1` (stereo unspecified), the TGI in the assay on HOP-92 NSCLC amounted to 33.1 µM; in the assay on HT29 colon it was 39.1 µM; with MOLT-4 leukemia it was 33.7 µM; with OVCAR-5 ovarian, 54.1 µM; in the assay on SF-268 CNS, 21.5 µM; with SK-MEL-2 melanoma, 30.8 µM. Further, the TGI worked out at 35.4 µM with SNB-75 CNS, 35.1 µM in the assay with SR leukemia and 29.1 µM in the assay on UACC-257 melanoma.

`CC1(C)C(=O)N(CCCCCCN2C(=O)C(C)(C)c3ccccc32)c2ccccc21`: the TGI in the assay with HOP-92 NSCLC was more than 100 µM; in the assay with HT29 colon it was 43.5 µM; in the assay with MOLT-4 leukemia it was 60 µM; in the assay with OVCAR-5 ovarian, more than 100 µM; with SF-268 CNS, more than 100 µM; in the assay on SK-MEL-2 melanoma, more than 100 µM. Moreover, the TGI is more than 100 µM in the assay with SNB-75 CNS and 52 µM in the assay on UACC-257 melanoma.

Regarding `NP(=O)(Oc1c2occc2cc2ccc(=O)oc12)N(CCCl)CCCl` (stereo unspecified), the TGI with HOP-92 NSCLC, in the assay with HT29 colon, in the assay with MOLT-4 leukemia, in the assay on NCI-H522 lung, in the assay with OVCAR-5 ovarian and in the assay on SF-268 CNS was more than 100 µM throughout. Besides, the TGI with SK-MEL-2 melanoma, in the assay on SR leukemia and in the assay on UACC-257 melanoma was more than 100 µM in each case.

On to `COC(=O)/C(=N\Nc1nnc(C)n1N)C(C#N)c1ccc(Cl)cc1` (stereo unspecified), for which the TGI in the assay with HOP-92 NSCLC, with HT29 colon, in the assay on OVCAR-5 ovarian, in the assay with SF-268 CNS, in the assay on SK-MEL-2 melanoma and with SNB-75 CNS was more than 100 µM throughout. The TGI in the assay on UACC-257 melanoma was more than 100 µM.

Consider `COc1cc2ncnc(Nc3ccc(C)c(O)c3)c2cc1OC`, for which the GI50 with HT29 colon is 14.7 µM; in the assay with MOLT-4 leukemia, more than 25 µM; with NCI-H522 lung, 2.83 µM; in the assay with OVCAR-5 ovarian, 16.2 µM; in the assay on SF-268 CNS, more than 19.2 µM; in the assay with SK-MEL-2 melanoma, more than 13.4 µM. The GI50 in the assay with SNB-75 CNS is 4.9 µM; in the assay with SR leukemia, more than 25 µM; with UACC-257 melanoma it was more than 25 µM. The TGI with HT29 colon was more than 25 µM; in the assay on MOLT-4 leukemia it was more than 25 µM; with NCI-H522 lung, more than 18.6 µM; in the assay on OVCAR-5 ovarian, more than 25 µM; in the assay with SF-268 CNS it was more than 25 µM; in the assay with SK-MEL-2 melanoma, more than 20 µM. Also, the TGI with SNB-75 CNS is more than 24 µM; with SR leukemia it was more than 25 µM; in the assay with UACC-257 melanoma, more than 25 µM.

As for `Cc1cccc(N2CCN(C(=S)c3ccc4c(c3)OCO4)CC2)c1`, the GI50 with HOP-92 NSCLC is 24.6 µM; in the assay on MOLT-4 leukemia it was 15.8 µM; in the assay with OVCAR-5 ovarian, 5.41 µM; in the assay with SF-268 CNS, 3.85 µM; with SNB-75 CNS, 0.8 µM; with SR leukemia it was 0.557 µM. Besides, in the assay with UACC-257 melanoma, the GI50 is more than 100 µM. For the same compound, the TGI with HOP-92 NSCLC was more than 100 µM; with MOLT-4 leukemia, more than 100 µM; with OVCAR-5 ovarian, more than 100 µM; with SF-268 CNS, more than 100 µM; in the assay on SNB-75 CNS, 6.85 µM; in the assay on SR leukemia it was more than 100 µM. This compound had a TGI in the assay with UACC-257 melanoma of more than 100 µM.

For the compound `O=C(Cc1ccccc1)NN1C(=O)C(Cl)C1c1cc(Br)ccc1O` (stereo unspecified), the TGI in the assay with HT29 colon was more than 100 µM; with MOLT-4 leukemia, 8.07 µM; in the assay on NCI-H522 lung it was more than 100 µM; in the assay on OVCAR-5 ovarian, more than 100 µM; with SF-268 CNS, 50 µM; with SK-MEL-2 melanoma it was more than 100 µM. The results for the TGI in the assay with SNB-75 CNS, in the assay on SR leukemia and in the assay on UACC-257 melanoma were 34.4 µM, more than 100 µM and more than 100 µM, respectively.

Regarding `O=C1CCN2C(=O)CCN12`, the TGI in the assay with HOP-92 NSCLC, in the assay with HT29 colon, in the assay on MOLT-4 leukemia, in the assay on NCI-H522 lung, with OVCAR-5 ovarian and in the assay with SF-268 CNS was more than 100 µM in each case. The TGI in the assay on SK-MEL-2 melanoma, with SR leukemia and in the assay on UACC-257 melanoma was more than 100 µM in each case.

As for `CC(C)C(NC(=O)OC(C)(C)C)C(=O)N(C)C(Cc1ccccc1)C(=O)N(C)C(C(=O)O)C(C)C` (stereo not drawn) (Boc-Val-[NMeF]-[NMeV]-OH; configuration not given here), the TGI in the assay on HT29 colon, with MOLT-4 leukemia, with NCI-H522 lung, in the assay on SF-268 CNS, in the assay on SR leukemia and in the assay with UACC-257 melanoma was more than 100 µM throughout.

Regarding `Cc1ccc(C2=C(c3ccccc3)C(Br)(c3ccc(C)cc3)C(c3ccccc3)=C2c2ccc(C)cc2)cc1`, the TGI in the assay with HOP-92 NSCLC, in the assay on MOLT-4 leukemia, with OVCAR-5 ovarian, in the assay with SF-268 CNS, in the assay on SK-MEL-2 melanoma and in the assay on UACC-257 melanoma was more than 100 µM each time.

For `Cc1cc(C(=O)Nc2ncc(Cc3cccc(C(F)(F)F)c3)s2)c2ccccc2n1`, the GI50 is 2.56 µM with HOP-92 NSCLC; 1.14 µM with HT29 colon; 2.39 µM in the assay with MOLT-4 leukemia; 2.33 µM in the assay on NCI-H522 lung; 2.63 µM in the assay on SF-268 CNS; 2.74 µM in the assay with SK-MEL-2 melanoma. Moreover, the GI50 in the assay on SR leukemia is 2.02 µM; with UACC-257 melanoma it was 1.75 µM. Also, the TGI in the assay with HOP-92 NSCLC, in the assay with HT29 colon, in the assay on MOLT-4 leukemia, in the assay on NCI-H522 lung, with SF-268 CNS and in the assay on SK-MEL-2 melanoma was more than 100 µM each time. In addition, the TGI in the assay with SR leukemia and in the assay on UACC-257 melanoma was more than 100 µM in each case.

Consider `c1ccc(CNn2nnc3ccccc32)cc1`, for which the TGI in the assay with HOP-92 NSCLC, with HT29 colon, in the assay with MOLT-4 leukemia, in the assay with NCI-H522 lung, in the assay with OVCAR-5 ovarian and in the assay on SF-268 CNS was more than 100 µM throughout. The TGI with SK-MEL-2 melanoma, in the assay with SNB-75 CNS and with UACC-257 melanoma was more than 100 µM throughout.

Source of the values: PubChem BioAssay (NCI).
